Source: US12247018B2, “Aryl-n-aryl derivatives for treating a RNA virus infection” (ABIVAX, priority 2018, dated 2025)

system: RSV A2; experiment: RSV inhibition (cytopathic effect) in HEp-2 cells using Viral ToxGlo assay; assay type: cell-based; conditions: human respiratory syncytial virus; RSV A2, HEp-2 cells, MOI 0.5, 72 h p.i.
Protocol: Protocol for Screening Antiviral Compounds for RSV Inhibition and Cytotoxicity Using Viral ToxGlo Assay
HEp-2 cells were maintained in Eagle's minimum essential medium (EMEM) with Earle's BSS adjusted to contain 2 mM L-glutamine, 10% fetal bovine serum, 100 U/ml penicillin and 100 μg/ml streptomycin. For the purposes of the screening assay they were grown to 90% confluency, trypsinized and recovered. The trypsin was neutralised with cell culture media and cells were centrifuged at 150×g for 5 minutes before discarding the supernatant and resuspending cell pellet in assay media (EMEM with Earle's BSS adjusted to contain 2 mM L-glutamine, 2% fetal bovine serum and 100 U/ml penicillin and 100 μg/ml streptomycin). The cells were seeded into white clear-bottomed cell culture plates at a density of 1.5×10^4 cells/well in 50 μl and 4×10^3 cells/well in 25 μl for 96 well plates and 384 well plates respectively. For the media/background control column assay media only was added. Cell plates were placed in a humid chamber and incubated overnight at 37° C./5% CO2. After overnight incubation cells were checked for confluency and healthy appearance.
Test articles were made up at 10× test concentration in a maximum DMSO concentration of 10% (final assay concentration maximal 1% DMSO) and added to the cell plates in volumes of 10 μl for 96 well plates and 5 μl for 384 well plates. For cell control and virus control wells the test article solvent only was added. Virus or assay media for cytotoxicity test wells and media/cell control wells was added immediately after test articles at an MOI of 0.5, 40 or 20 μl for 96 and 384 well plates respectively. Virus suspension was prepared by thawing RSV A2 frozen stocks and diluting to the required concentration of plaque forming units in assay media on ice.
Cell plates were further incubated inside a humid chamber for 72 h p.i at 37° C./5% CO2. After the incubation period cells were observed under the microscope to check for characteristic cytopathic effect in virus control wells and healthy cells in the cell control wells. After plates were adjusted to room temperature 20/40 μl Viral ToxGlo (Promega) was added to each well of the 384/96 well cell plates. Plates were incubated at room temperature, protected from light on a plate rocker for 20 minutes before measuring the luminescence on a spectrophotometer (Biotek Synergy HTX).

Compound	EC50 [nM]
O=C(N=C1NCCCN1)c1ccc(Nc2cccc(C(=O)NCCC3CCOCC3)c2)c(C2CC2)c1 [compound 126, 3-cyclopropyl-N-(1,3-diazinan-2-ylidene)-4-[(3-{[2-(oxan-4-yl)ethyl]carbamoyl}phenyl)amino]benzamide]	165
CC1CN1C(=O)c1cccc(Nc2ccc(C(=O)N=C3NCCCN3)cc2C2CC2)c1 (centres unmarked) [compound 162, 3-cyclopropyl-N-(1,3-diazinan-2-ylidene)-4-{[3-(2-methylaziridine-1-carbonyl)phenyl]amino}benzamide]	1370
CC(C)CCCNC(=O)c1cccc(Nc2ccc(C(=O)N=C3NCCCN3)cc2C2CC2)c1 [compound 105, 3-cyclopropyl-N-(1,3-diazinan-2-ylidene)-4-({3-[(4-methylpentyl)carbamoyl]phenyl}amino)benzamide]	62
O=C1CCN/C(=N\C(=O)c2ccc(Nc3cccc(OCCCC4CCCCC4)c3)c(C3CC3)c2)N1 [compound 97, 4-{[3-(3-cyclohexylpropoxy)phenyl]amino}-3-cyclopropyl-N-[(2E)-4-oxo-1,3-diazinan-2-ylidene]benzamide]	25
CC1(NC(=O)c2cccc(Nc3ccc(C(=O)/N=C4\NCCC(=O)N4)cc3C3CC3)c2)CC1 [compound 121, 3-cyclopropyl-4-({3-[(1-methylcyclopropyl)carbamoyl]phenyl}amino)-N-[(2E)-4-oxo-1,3-diazinan-2-ylidene]benzamide]	139
O=C1CCN/C(=N\C(=O)c2ccc(Nc3cccc(OCC4COCCO4)c3)c(C3CC3)c2)N1 (centres unmarked) [compound 161, 3-cyclopropyl-4-({3-[(1,4-dioxan-2-yl)methoxy]phenyl}amino)-N-[(2E)-4-oxo-1,3-diazinan-2-ylidene]benzamide]	1310
CC1(C)CN1C(=O)c1cccc(Nc2ccc(C(=O)N=C3NCCCN3)cc2C2CC2)c1 [compound 154, 3-cyclopropyl-N-(1,3-diazinan-2-ylidene)-4-{[3-(2,2-dimethylaziridine-1-carbonyl)phenyl]amino}benzamide]	917
O=C(N=C1NCCCN1)c1ccc(Nc2ccnc(C(=O)NCCC3CCCCC3)c2)c(C2CC2)c1 [compound 138, N-(2-cyclohexylethyl)-4-({2-cyclopropyl-4-[(1,3-diazinan-2-ylidene)carbamoyl]phenyl}amino)pyridine-2-carboxamide]	310
O=C(N=C1NCCCN1)c1ccc(Nc2cccc(OCCCC3CCCCC3)c2)c(C2CC2)c1 [compound 115, 4-{[3-(3-cyclohexylpropoxy)phenyl]amino}-3-cyclopropyl-N-(1,3-diazinan-2-ylidene)benzamide]	110
O=C(N=C1NCCCN1)c1ccc(Nc2cccc(C(=O)N3CCOCC3)c2)c(C2CC2)c1 [compound 158, 3-cyclopropyl-N-(1,3-diazinan-2-ylidene)-4-{[3-(morpholine-4-carbonyl)phenyl]amino}benzamide]	1030
CC1CN(C(=O)c2cccc(Nc3ccc(C(=O)/N=C4\NCCC(=O)N4)cc3C3CC3)c2Cl)CCO1 (centres unmarked) [compound 92, 4-{[2-chloro-3-(2-methylmorpholine-4-carbonyl)phenyl]amino}-3-cyclopropyl-N-[(2E)-4-oxo-1,3-diazinan-2-ylidene]benzamide]	2
CC(C)NC(=O)c1cccc(Nc2ccc(C(=O)N=C3NCCCN3)cc2C2CC2)c1 [compound 102, 3-cyclopropyl-N-(1,3-diazinan-2-ylidene)-4-({3-[(propan-2-yl)carbamoyl]phenyl}amino)benzamide]	41
CN(C)C(=O)c1cccc(Nc2ccc(C(=O)N=C3NCCCN3)cc2C2CC2)c1 [compound 163, 3-cyclopropyl-N-(1,3-diazinan-2-ylidene)-4-{[3-(dimethylcarbamoyl)phenyl]amino}benzamide]	1470
O=C(N=C1NCCCN1)c1ccc(Nc2cccc(C(=O)N3CC4CC4C3)c2)c(C2CC2)c1 (centres unmarked) [compound 136, 4-[(3-{3-azabicyclo[3.1.0]hexane-3-carbonyl}phenyl)amino]-3-cyclopropyl-N-(1,3-diazinan-2-ylidene)benzamide]	298
